Results on 3 molecules are retold here after patent publication US20230134377A1, “INSECT-REPELLENT PERSONAL-CARE COMPOSITION” (priority 2021, published 2023).

Molecules are shown by their SMILES.

The test system of data set [1] is mosquito, biting fly, tick. The data set can be described thus: repellent behaviour of C12 fatty acid on treated skin. The format is in vivo. To be noted: insect will land but not bite on treated skin.
Data set [2] can be described thus: crystallization / phase stability of fatty acids in the MCT composition. It is filed as physicochemical. How it is done:
The first issue was one of phase stability, i.e., with higher levels of C12 fatty acid, the fatty acid precipitates out of the MCT matrix when essential oils are also present, leaving just the essential oils and the MCT carrier in solution.
The MCT as a dilutant at high enough percentage by weight in the composition prevents undesirable crystallization down to about 45-50° F. (with only C10 fatty acid, the composition is stable to about 12% concentration in the formula and with only C12 fatty acid, the composition is stable up to about 7%). It was also determined that the combination of either C8 or C10 with the C12 in a ratio of 1:4 or greater results in no undesirable crystallization.
A 100% substitution of the MCT with these yielded a clear product at cooler temperatures. […] Other co-solvents recognized by the present disclosure as useful in preventing crystallization of fatty acids from the composition include alcohols such as methanol, ethanol, propanol, and isopropanol. However, as indicated earlier, these alcohols are drying to the skin and should be avoided, if at all possible, in skin-care type repellent formulas.

[3] abbreviates: 100% substitution of the MCT, cooler temperatures.

Regarding `CCCCCCCCCCCC(=O)O` [C12 fatty acid, lauric acid], in data set [1], the type of repellency result is listed as “close-proximity or contact repellent”. In data set [2] (only this fatty acid, in MCT as dilutant), the “concentration in the formula up to which the composition is stable (no crystallization)” value is “about 7%”. In addition, the “solubility in MCTs” value in data set [2] (without essential oils) is given as “completely soluble”.
For the molecule `CCCCCCCCCC(=O)OC` [methyl decanoate], in data set [2], the “effect of co-solvent on crystallization when added to the composition” value is listed as “limit crystallization”. For the same molecule, the “appearance after substitution of the MCT by the co-solvent” value in data set [2] (25% substitution level) is recorded as “significant benefit but not to the total clarity”; in data set [2] (setting [3]) it was “clear product”.
As to `CCCCCCCCCCCCCC(=O)OC(C)C` [isopropyl myristate], in data set [2], the “effect of co-solvent on crystallization when added to the composition” value was “limit crystallization”. Moreover, the “appearance after substitution of the MCT by the co-solvent” value in data set [2] (25% substitution level) is recorded as “significant benefit but not to the total clarity”; in data set [2] (setting [3]), “clear product”.
